According to patent publication US20100317621A1, “BETA-LACTAMASE INHIBITORS” (priority 2007, published 2010):
≈ marks a conversion by molar mass, not a printed value.

Tested on: E. coli expressing the Class A ESBL CTX-M-15
Assay: microbe, parasite or virus in culture
Format: cell-based
Details: Escherichia coli, read-out: MIC alone, E. coli CTX-M-15

## CO/N=C(\C(=O)N[C@@H]1C(=O)N2C(C(=O)O)=C(COC(C)=O)CS[C@H]12)c1csc(N)n1 [cefotaxime]
  MIC: 1020 µg/mL (≈ 2250 µM)
